Where two headings read alike, the source gives them in different places.
- Final pH (100 μg/mL Iloprost in 10 mM Acetate, initial pH 5.00): 5.08
- Final pH (100 μg/mL Iloprost in 10 mM Citrate, initial pH 2.89): 2.99
- Final pH (100 μg/mL Iloprost in 10 mM Phosphate, initial pH 6.23): 6.36
- Final pH (100 μg/mL Iloprost in 10 mM Phosphate, initial pH 7.27): 7.42
- Final pH (100 μg/mL Iloprost in 10 mM Phosphate, initial pH 8.60): 8.59
- solubility by chromatographic analysis (pH 2.89): potential solubility issues below pH 6
- visual solubility (pH 2.89): No visual solubility issues
Structure (SMILES): CC#CCC(C)[C@H](O)/C=C/[C@@H]1[C@H]2C/C(=C/CCCC(=O)O)C[C@H]2C[C@H]1O (stereo partly shown) [Iloprost]
